# According to patent US7153685B2 (The Board of Trustees of the University of Illinois, priority 2002, dated 2006):
# Columns and labels:
# ER 2 = ER 2 (Homo sapiens, UniProt P03372, E203W/G215R/G400V/Q214A); conditions: ATL2/PAL-LUC, 10 nM ligand
# Protocol: (§3) HepG2 human hepatoma cells were maintained in a humidified 5% CO2 incubator at 37° C. in Dulbecco's Modified Eagle's Medium (DMEM; Sigma; St. Louis, Mo.) supplemented with 10 % charcoal-dextran-stripped fetal bovine serum (CD-FBS; Atlanta Biologicals, Inc; Atlanta, Ga.), 50,000 U/l of penicillin, and 50 mg/liter streptomycin (Life Technologies, Inc.). MCF-7 cells were routinely maintained in DMEM/Nutrient Mixture F-12 (DMEM/F12) supplemented with 10% heat-inactived FBS, 50,000 U/l of penicillin, and 50 mg/l streptomycin. CHO-S cells were maintained in DMEM/F12 supplemented with 10% heat-inactivated FBS (CD-FBS when ERs were being expressed) or 10% CD-new born calf serum (CD-NBCS, when reporter activity by different ligands were measured), 29.2 mg/l L-glutamine (Sigma), and 50,000 U/l of penicillin and 50 mg/l streptomycin.
# Transient transfections in HepG2 cells was accomplished using calcium phosphate co-precipitation (Ausubel et al., 1987). Briefly, cells were plated in 12-well microplates at a density of 1×10^5 cells/well. The next day, the medium was replaced, and 2–6 hours later, precipitated calcium phosphate:DNA co-crystals were added. […] Activity was determined using the dual luciferase assay protocol according to the manufacturer's directions (Promega) on a Monolight 2010 luminometer (Analytical Luminescence, San Diego, Calif.)
# N-79 [1] = target: T1, N-79 (Homo sapiens, UniProt P03372, E203W/G400V/H216G/Q214A); assay: Autoregulated expression system (ATL8/PAL-N-79 + ATL8/PAL-LUC) in 231 human breast cancer cells; assay type: cell-based; design: expressed in transfected cells; host or cells: HepG2 (A20); 231 human breast cancer cells (A21); CHO-S (A22); conditions: 10 nM OHT
# From the text: (§1) These fragments were digested with KpnI and BamHI and then purified from agarose gels. […] To create C-129, this ER fragment was digested with XbaI and KpnI and then cloned together with the DNA fragment containing 129 amino acids of VP16 into 5.9 kb vector generated by digestion of CMV-hER with XbaI and BamHI. The same strategy was adopted to create C-79 using the DNA fragment containing 79 amino acids of VP16. Therefore, the expression of these chimeras is driven by the same CMV promoter as that of ER-3M. […] The amplified PCR product was digested with NcoI and NotI. […] This fragment and the NcoI/NotI PCR fragment were then inserted together into the 4.3 kb vector, pGL3-ATL8/PAL-LUC, which was created by digesting ATL8/PAL-LUC completely with NcoI and partially with XbaI so that the luciferase gene was replaced by N-79.
# (§2) A second plasmid also containing 8 copes of pS2 PAL drives expression of the reporter gene (FIG. 11, ATL8/PAL-LUC).
# N-79 [2] = target: T1, N-79; assay: Autoregulated expression system (ATL8/PAL-N-79 + ATL8/PAL-LUC) in HepG2 cells; assay type: cell-based; design: expressed in transfected cells; host or cells: HepG2 (A20); 231 human breast cancer cells (A21); CHO-S (A22); conditions: HepG2 human hepatoblastoma cells, 10 nM OHT
# From the text: as §1, §2
# [3] = tested on: wild type ER and the ER mutants
# Protocol: HepG2 human hepatoma cells were maintained in a humidified 5% CO2 incubator at 37° C. in Dulbecco's Modified Eagle's Medium (DMEM; Sigma; St. Louis, Mo.) supplemented with 10 % charcoal-dextran-stripped fetal bovine serum (CD-FBS; Atlanta Biologicals, Inc; Atlanta, Ga.), 50,000 U/l of penicillin, and 50 mg/liter streptomycin (Life Technologies, Inc.). MCF-7 cells were routinely maintained in DMEM/Nutrient Mixture F-12 (DMEM/F12) supplemented with 10% heat-inactived FBS, 50,000 U/l of penicillin, and 50 mg/l streptomycin.
# Briefly, cells were plated in 12-well microplates at a density of 1×10^5 cells/well. The next day, the medium was replaced, and 2–6 hours later, precipitated calcium phosphate:DNA co-crystals were added. After 12–16 hours, the cells were shocked for 3 minutes with 20% glycerol in Tris-buffered saline, pH 7.4. Fresh medium and (if any) hormones were added. For MCF-7 and 231 cells, transient transfection was carried out using the Tfx™-20 reagent (Promega; Madison, Wis.) according to the manufacturer's direction with minor changes. Briefly, 1×10^5 cells were plated in each well of 12-well microplates one day before transfection. A 1:3 ratio of DNA to lipid was used. The DMEM/F12 medium without serum was used as carrier for the DNA-lipid mixture. After 1 hour incubation with the DNA-lipid-DMEM/F12 at 37° C., the cells were transferred to fresh DMEM/F12 supplemented with 10% CD-FBS, 50,000 U/I of penicillin, 50 mg/l streptomycin and hormones. Transfection on CHO—S cells was described as above for the preparation of ERs extraction except the medium contained 10% CD-NBCS. The cells subjected to either transfection method were harvested 48 hours post-transfection. Reporter assays were performed by lysing the cells in situ with 250 μl of passive lysis buffer (Promega).
# The data represent the mean±S.E. of three independent transfections.
# N-79 [4] = target: T1, N-79; conditions: CHO-S cells, 10 nM OHT
# From the text: as §1, §2
# ER 4.3 = ER 4.3 (Homo sapiens, UniProt P03372, E203W/G215R/G400V/H216P/N217T/Q214V)
# Protocol: as §3
# Transient transfections in HepG2 cells was accomplished using calcium phosphate co-precipitation (Ausubel et al., 1987). Briefly, cells were plated in 12-well microplates at a density of 1×10^5 cells/well. The next day, the medium was replaced, and 2–6 hours later, precipitated calcium phosphate:DNA co-crystals were added. […] Activity was determined using the dual luciferase assay protocol according to the manufacturer's directions (Promega) on a Monolight 2010 luminometer (Analytical Luminescence, San Diego, Calif.) […]
# ER3M = ER3M (Homo sapiens, UniProt P03372, E203W/G400V/H216G/Q214A)
# ER mutant 4.3 = ER mutant 4.3 (Homo sapiens, UniProt P03372, E203W/G215R/G400V/H216P/N217T/Q214V); conditions: 10 μM ligand
# Protocol: HepG2 human hepatoma cells were maintained in a humidified 5% CO2 incubator at 37° C. in Dulbecco's Modified Eagle's Medium (DMEM; Sigma; St. Louis, Mo.) supplemented with 10 % charcoal-dextran-stripped fetal bovine serum (CD-FBS; Atlanta Biologicals, Inc; Atlanta, Ga.), 50,000 U/l of penicillin, and 50 mg/liter streptomycin (Life Technologies, Inc.).
# Transient transfections in HepG2 cells was accomplished using calcium phosphate co-precipitation (Ausubel et al., 1987). Briefly, cells were plated in 12-well microplates at a density of 1×10^5 cells/well. The next day, the medium was replaced, and 2–6 hours later, precipitated calcium phosphate:DNA co-crystals were added. After 12–16 hours, the cells were shocked for 3 minutes with 20% glycerol in Tris-buffered saline, pH 7.4. Fresh medium and (if any) hormones were added. For MCF-7 and 231 cells, transient transfection was carried out using the Tfx™-20 reagent (Promega; Madison, Wis.) according to the manufacturer's direction with minor changes. Briefly, 1×10^5 cells were plated in each well of 12-well microplates one day before transfection. A 1:3 ratio of DNA to lipid was used. […] Activity was determined using the dual luciferase assay protocol according to the manufacturer's directions (Promega) on a Monolight 2010 luminometer (Analytical Luminescence, San Diego, Calif.) […]
# wild type hERα = target: T2, wild type hERα (Homo sapiens, UniProt P03372, G400V); assay: Ligand-dependent luciferase reporter transactivation in transfected HepG2 cells
# T2 sequence (P03372 1-595 G400V): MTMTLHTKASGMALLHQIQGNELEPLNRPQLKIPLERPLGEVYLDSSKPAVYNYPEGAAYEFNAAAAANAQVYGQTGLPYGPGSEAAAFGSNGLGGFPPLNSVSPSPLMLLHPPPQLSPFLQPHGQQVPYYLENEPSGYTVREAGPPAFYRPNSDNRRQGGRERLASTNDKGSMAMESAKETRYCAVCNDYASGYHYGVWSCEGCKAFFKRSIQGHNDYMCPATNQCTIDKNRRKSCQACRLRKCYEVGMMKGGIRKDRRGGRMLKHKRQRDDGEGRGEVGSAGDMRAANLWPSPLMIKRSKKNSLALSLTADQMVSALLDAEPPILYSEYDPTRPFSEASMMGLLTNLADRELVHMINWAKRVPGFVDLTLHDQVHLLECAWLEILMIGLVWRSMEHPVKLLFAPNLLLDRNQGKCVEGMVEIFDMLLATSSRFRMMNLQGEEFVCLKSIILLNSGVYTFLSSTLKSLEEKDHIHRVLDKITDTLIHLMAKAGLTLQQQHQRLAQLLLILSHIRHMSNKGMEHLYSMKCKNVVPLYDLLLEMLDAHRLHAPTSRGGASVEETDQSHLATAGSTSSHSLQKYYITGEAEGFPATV
# Protocol: as §3
# Transient transfections in HepG2 cells was accomplished using calcium phosphate co-precipitation (Ausubel et al., 1987). Briefly, cells were plated in 12-well microplates at a density of 1×10^5 cells/well. The next day, the medium was replaced, and 2–6 hours later, precipitated calcium phosphate:DNA co-crystals were added. After 12–16 hours, the cells were shocked for 3 minutes with 20% glycerol in Tris-buffered saline, pH 7.4. Fresh medium and (if any) hormones were added. For MCF-7 and 231 cells, transient transfection was carried out using the Tfx™-20 reagent (Promega; Madison, Wis.) according to the manufacturer's direction with minor changes. Briefly, 1×10^5 cells were plated in each well of 12-well microplates one day before transfection. A 1:3 ratio of DNA to lipid was used. The DMEM/F12 medium without serum was used as carrier for the DNA-lipid mixture. After 1 hour incubation with the DNA-lipid-DMEM/F12 at 37° C., the cells were transferred to fresh DMEM/F12 supplemented with 10% CD-FBS, 50,000 U/I of penicillin, 50 mg/l streptomycin and hormones. Transfection on CHO—S cells was described as above for the preparation of ERs extraction except the medium contained 10% CD-NBCS. The cells subjected to either transfection method were harvested 48 hours post-transfection. Reporter assays were performed by lysing the cells in situ with 250 μl of passive lysis buffer (Promega). Activity was determined using the dual luciferase assay protocol according to the manufacturer's directions (Promega) on a Monolight 2010 luminometer (Analytical Luminescence, San Diego, Calif.)
# Transient transfections of HepG2 cells were carried out and luciferase activity determined.
# [5] = tested on: mutant and chimeric estrogen receptors
# [6] = ATL8/PAL-LUC, 2.5 ng expression plasmid, 10 nM OHT
# T1 sequence (P03372 with tags, fused parts or gaps E203W/Q214A/H216G/G400V): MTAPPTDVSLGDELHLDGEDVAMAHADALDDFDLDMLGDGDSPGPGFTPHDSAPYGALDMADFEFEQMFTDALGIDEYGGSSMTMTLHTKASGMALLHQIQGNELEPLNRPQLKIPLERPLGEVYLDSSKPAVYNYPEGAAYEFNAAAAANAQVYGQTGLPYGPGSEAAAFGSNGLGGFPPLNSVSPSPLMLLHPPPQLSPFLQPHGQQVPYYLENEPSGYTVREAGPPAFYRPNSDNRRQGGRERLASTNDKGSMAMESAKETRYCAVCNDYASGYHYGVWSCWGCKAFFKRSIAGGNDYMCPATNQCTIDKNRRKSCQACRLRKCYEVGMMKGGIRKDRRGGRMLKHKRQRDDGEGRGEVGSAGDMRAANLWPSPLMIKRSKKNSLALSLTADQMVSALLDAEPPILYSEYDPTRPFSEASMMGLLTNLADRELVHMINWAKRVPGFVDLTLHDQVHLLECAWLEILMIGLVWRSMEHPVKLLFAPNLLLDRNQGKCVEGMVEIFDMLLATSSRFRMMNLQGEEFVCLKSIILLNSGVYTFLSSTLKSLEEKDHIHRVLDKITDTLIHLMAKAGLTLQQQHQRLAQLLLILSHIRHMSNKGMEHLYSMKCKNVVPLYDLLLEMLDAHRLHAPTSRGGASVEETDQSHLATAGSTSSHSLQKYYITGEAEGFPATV
# Chain of ER3M (P03372 whole entry E203W/Q214A/H216G/G400V): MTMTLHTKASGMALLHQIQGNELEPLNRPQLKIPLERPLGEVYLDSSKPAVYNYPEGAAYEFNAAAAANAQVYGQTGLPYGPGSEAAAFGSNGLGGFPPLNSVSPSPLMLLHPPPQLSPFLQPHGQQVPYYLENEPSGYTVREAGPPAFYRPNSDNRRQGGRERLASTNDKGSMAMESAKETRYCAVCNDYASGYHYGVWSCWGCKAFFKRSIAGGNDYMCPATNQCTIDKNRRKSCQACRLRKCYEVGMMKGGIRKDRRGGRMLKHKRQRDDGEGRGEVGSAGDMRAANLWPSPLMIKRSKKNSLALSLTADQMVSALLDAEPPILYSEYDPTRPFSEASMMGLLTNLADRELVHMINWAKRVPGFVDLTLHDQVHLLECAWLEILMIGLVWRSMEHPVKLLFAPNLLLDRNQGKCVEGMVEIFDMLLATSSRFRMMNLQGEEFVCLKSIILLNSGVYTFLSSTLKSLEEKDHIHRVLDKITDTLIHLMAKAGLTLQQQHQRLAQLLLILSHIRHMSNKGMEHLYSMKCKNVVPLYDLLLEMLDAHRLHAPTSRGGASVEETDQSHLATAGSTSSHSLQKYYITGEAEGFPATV
# Chain of ER mutant 4.3 (P03372 whole entry E203W/Q214V/G215R/H216P/N217T/G400V): as the sequence (P03372 whole entry E203W/Q214A/H216G/G400V) above, with A214V, G215R, G216P, N217T counted along it
# Chain of ER 4.3 (P03372 whole entry E203W/Q214V/G215R/H216P/N217T/G400V): as the sequence (P03372 whole entry E203W/Q214A/H216G/G400V) above, with A214V, G215R, G216P, N217T counted along it
# Chain of ER 2 (P03372 whole entry E203W/Q214A/G215R/G400V): as the sequence (P03372 whole entry E203W/Q214A/H216G/G400V) above, with G215R, G216H counted along it
molecule,measurement,setting,value
4-hydroxytamoxifen [OHT],transactivation by OHT compared with MOX,ER 2,equal to that seen with MOX
same,increase in luciferase activity upon addition of OHT,N-79 [1],813 fold
same,increase in luciferase activity upon addition of OHT,N-79 [2],1027 fold
same,agonist character of OHT when pS2 PAL supplied the ERE,"[3]; ATL2/PAL-LUC, 10 nM ligand, ER mutants",full agonist
same,"transactivation in response to OHT, percent of that seen with MOX","[3]; ATL2/pS2 ERE-LUC, 10 nM ligand",about 30%
same,OHT transactivation with four copies of pS2 PAL compared with MOX,"[3]; ATL4/PAL-LUC, 10 nM ligand",same level of transactivation as MOX
same,"OHT activity, percent of that seen with MOX","[3]; ATL4/cERE-LUC, wild type hERα and ERs 3M and 4.3, 10 nM ligand",20–25%
same,OHT-mediated activation of transcription on different versions of pS2 PAL reporters,"[3]; summary, pS2 PAL reporters and the ER mutants",70–1000 fold
same,induction upon addition of OHT,N-79 [4],28 fold
same,transactivation by OHT compared with MOX,"ER 4.3; ATL2/PAL-LUC, 10 nM ligand",equal to that seen with MOX
same,increase in reporter gene expression by OHT,ER 4.3; [6],172 fold
same,transactivation by OHT compared with MOX,"ER3M; ATL2/PAL-LUC, 10 nM ligand",exceeded that seen with MOX
same,increase in reporter gene expression by OHT,ER3M; [6],117 fold
same,maximal level of transactivation,"ER3M; ATL8/PAL-LUC, tamoxifen compared with OHT",similar
same,"transactivation by OHT, percent of that seen with E2",ER mutant 4.3; ATL4/PAL-LUC,45%
same,"OHT-mediated transactivation, percent of that observed with estradiol (E2)",ER mutant 4.3; ATL4/cERE-LUC,13%
same,"agonism on ATL8/cERE-LUC, OHT compared with moxestrol",wild type hERα; 10 nM ligand,weaker agonist than moxestrol
same,"transactivation of ATL8/PAL-LUC, OHT compared with MOX",wild type hERα; 10 nM ligand,higher with OHT than with MOX
same,transactivation level on two copies of pS2 PAL,"wild type hERα; ATL2/PAL-LUC, 10 nM ligand",undetectable
same,agonist activity when bound to the cERE,"wild type hERα; ATL2/cERE-LUC, 10 nM OHT",weak agonist activity
same,induction of luciferase activity from ATL8/PAL,"wild type hERα; ATL8/PAL-LUC, 5 ng expression plasmid, 10 nM OHT",52 fold
O=C(c1ccc(OCCN2CCCCC2)cc1)c1c(-c2ccc(O)cc2)sc2cc(O)ccc12 [Raloxifene],transcription activation when bound to mutant and chimeric estrogen receptors,[5],fail to activate transcription
